# Test results from PubChem BioAssay AID1259407 (Chemical Carcinogenesis Research Information System (CCRIS), 2018).
# Activity calls are given as the source filed them. The rule behind the calls is not given here.
# System: CCRIS mutagenicity, Ames/micronucleus/aberration tests
# Experiment: CCRIS mutagenicity studies
# [1] = Test System: AMES SALMONELLA TYPHIMURIUM, Strain/Indicator: TA98, Metabolic Activation: HAMSTER, LIVER, S-9, AROCLOR 1254 (10%), Method: PREINCUBATION
# [2] = Test System: AMES SALMONELLA TYPHIMURIUM, Strain/Indicator: TA98, Metabolic Activation: NONE, Method: PREINCUBATION
# [3] = Test System: AMES SALMONELLA TYPHIMURIUM, Strain/Indicator: TA98, Metabolic Activation: RAT, LIVER, S-9, AROCLOR 1254 (10%), Method: PREINCUBATION
# [4] = Test System: AMES SALMONELLA TYPHIMURIUM, Strain/Indicator: TA100, Metabolic Activation: HAMSTER, LIVER, S-9, AROCLOR 1254 (10%), Method: PREINCUBATION
# [5] = Test System: AMES SALMONELLA TYPHIMURIUM, Strain/Indicator: TA100, Metabolic Activation: NONE, Method: PREINCUBATION
# [6] = Test System: AMES SALMONELLA TYPHIMURIUM, Strain/Indicator: TA100, Metabolic Activation: RAT, LIVER, S-9, AROCLOR 1254 (10%), Method: PREINCUBATION
# [7] = Test System: AMES SALMONELLA TYPHIMURIUM, Strain/Indicator: TA1535, Metabolic Activation: HAMSTER, LIVER, S-9, AROCLOR 1254 (10%), Method: PREINCUBATION
# [8] = Test System: AMES SALMONELLA TYPHIMURIUM, Strain/Indicator: TA1535, Metabolic Activation: NONE, Method: PREINCUBATION
# [9] = Test System: AMES SALMONELLA TYPHIMURIUM, Strain/Indicator: TA1535, Metabolic Activation: RAT, LIVER, S-9, AROCLOR 1254 (10%), Method: PREINCUBATION
# [10] = Test System: AMES SALMONELLA TYPHIMURIUM, Strain/Indicator: TA1537, Metabolic Activation: HAMSTER, LIVER, S-9, AROCLOR 1254 (10%), Method: PREINCUBATION
# [11] = Test System: AMES SALMONELLA TYPHIMURIUM, Strain/Indicator: TA1537, Metabolic Activation: NONE, Method: PREINCUBATION
# [12] = Test System: AMES SALMONELLA TYPHIMURIUM, Strain/Indicator: TA1537, Metabolic Activation: RAT, LIVER, S-9, AROCLOR 1254 (10%), Method: PREINCUBATION
# [13] = Test System: AMES SALMONELLA TYPHIMURIUM, Strain/Indicator: TA98, Metabolic Activation: NONE, Method: STANDARD PLATE
# [14] = Test System: AMES SALMONELLA TYPHIMURIUM, Strain/Indicator: TA98, Metabolic Activation: RAT, LIVER, S-9, AROCLOR 1254, Method: STANDARD PLATE
# [15] = Test System: AMES SALMONELLA TYPHIMURIUM, Strain/Indicator: TA100, Metabolic Activation: NONE, Method: STANDARD PLATE
# [16] = Test System: AMES SALMONELLA TYPHIMURIUM, Strain/Indicator: TA100, Metabolic Activation: RAT, LIVER, S-9, AROCLOR 1254, Method: STANDARD PLATE
# [17] = Test System: AMES SALMONELLA TYPHIMURIUM, Strain/Indicator: TA1535, Metabolic Activation: NONE, Method: STANDARD PLATE
# [18] = Test System: AMES SALMONELLA TYPHIMURIUM, Strain/Indicator: TA1535, Metabolic Activation: RAT, LIVER, S-9, AROCLOR 1254, Method: STANDARD PLATE
# [19] = Test System: AMES SALMONELLA TYPHIMURIUM, Strain/Indicator: TA1537, Metabolic Activation: NONE, Method: STANDARD PLATE
# [20] = Test System: AMES SALMONELLA TYPHIMURIUM, Strain/Indicator: TA1537, Metabolic Activation: RAT, LIVER, S-9, AROCLOR 1254, Method: STANDARD PLATE
# [21] = Test System: AMES SALMONELLA TYPHIMURIUM, Strain/Indicator: TA1538, Metabolic Activation: NONE, Method: STANDARD PLATE
# [22] = Test System: AMES SALMONELLA TYPHIMURIUM, Strain/Indicator: TA1538, Metabolic Activation: RAT, LIVER, S-9, AROCLOR 1254, Method: STANDARD PLATE
smiles,measurement,setting,value
CCCN(CCC)S(=O)(=O)c1ccc(C(=O)O)cc1,mutagenic call,[1],inactive; negative
same,mutagenic call,[2],inactive; negative
same,mutagenic call,[3],inactive; negative
same,mutagenic call,[4],inactive; negative
same,mutagenic call,[5],inactive; negative
same,mutagenic call,[6],inactive; negative
same,mutagenic call,[7],inactive; negative
same,mutagenic call,[8],inactive; negative
same,mutagenic call,[9],inactive; negative
same,mutagenic call,[10],inactive; negative
same,mutagenic call,[11],inactive; negative
same,mutagenic call,[12],inactive; negative
CSCC[C@H](NC(=O)[C@@H](N)Cc1c[nH]c2ccccc12)C(=O)N[C@@H](CC(=O)O)C(=O)N[C@@H](Cc1ccccc1)C(N)=O,mutagenic call,[13],inactive; negative
same,mutagenic call,[14],inactive; negative
same,mutagenic call,[15],inactive; negative
same,mutagenic call,[16],inactive; negative
same,mutagenic call,[17],inactive; negative
same,mutagenic call,[18],inactive; negative
same,mutagenic call,[19],inactive; negative
same,mutagenic call,[20],inactive; negative
COc1ccc(CNCC(O)COc2ccc3[nH]c(=O)ccc3c2)cc1OC (stereo unspecified),mutagenic call,[13],inactive; negative
same,mutagenic call,[14],inactive; negative
same,mutagenic call,[15],inactive; negative
same,mutagenic call,[16],inactive; negative
same,mutagenic call,[17],inactive; negative
same,mutagenic call,[18],inactive; negative
same,mutagenic call,[19],inactive; negative
same,mutagenic call,[20],inactive; negative
same,mutagenic call,[21],inactive; negative
same,mutagenic call,[22],inactive; negative
same,mutagenic call,"Test System: E. COLI, Strain/Indicator: WP2 UVRA, Metabolic Activation: NONE, Method: STANDARD PLATE",inactive; negative
same,mutagenic call,"Test System: E. COLI, Strain/Indicator: WP2 UVRA, Metabolic Activation: RAT, LIVER, S-9, AROCLOR 1254, Method: STANDARD PLATE",inactive; negative
same,mutagenic call,"Test System: MOUSE LYMPHOMA, Strain/Indicator: L5178Y (TK+/TK-), Metabolic Activation: NONE, Method: SUSPENSION/PLATE",active; positive
Cn1c([N+](=O)[O-])cnc1C(O)c1cc(C(C)(C)C)cc(C(C)(C)C)c1O (stereo unspecified),mutagenic call,[13],inactive; negative
same,mutagenic call,[14],inactive; negative
same,mutagenic call,[15],inactive; negative
same,mutagenic call,[16],inactive; negative
same,mutagenic call,[17],inactive; negative
same,mutagenic call,[18],inactive; negative
same,mutagenic call,[19],inactive; negative
same,mutagenic call,[20],inactive; negative
same,mutagenic call,[21],inactive; negative
same,mutagenic call,[22],inactive; negative
C=C(C=O)CC,mutagenic call,[5],active; positive
same,mutagenic call,"Test System: AMES SALMONELLA TYPHIMURIUM, Strain/Indicator: TA100, Metabolic Activation: RAT LIVER S-9, AROCLOR 1254, Method: PREINCUBATION",active; positive
same,mutagenic call,"Test System: AMES SALMONELLA TYPHIMURIUM, Strain/Indicator: TA100, Metabolic Activation: RAT, LIVER, S-9, AROCLOR 1254, Method: PREINCUBATION",active; positive
CC(C)(C)OOC(=O)c1ccccc1,mutagenic call,[1],active; positive
same,mutagenic call,[2],active; positive
same,mutagenic call,[3],active; positive
same,mutagenic call,[4],active; positive
same,mutagenic call,[5],inactive; negative
same,mutagenic call,[6],inactive; negative
same,mutagenic call,[7],inactive; negative
same,mutagenic call,[8],inactive; negative
same,mutagenic call,[9],inactive; negative
same,mutagenic call,[10],active; positive
same,mutagenic call,[11],active; positive
same,mutagenic call,[12],active; positive
CC(=O)Nc1ccc2[nH]c3ccccc3c2c1,mutagenic call,[13],inactive; negative
same,mutagenic call,"Test System: AMES SALMONELLA TYPHIMURIUM, Strain/Indicator: TA98, Metabolic Activation: RAT, LIVER, S-9, PHENOBARBITAL, Method: STANDARD PLATE",active; positive
same,mutagenic call,[15],inactive; negative
same,mutagenic call,"Test System: AMES SALMONELLA TYPHIMURIUM, Strain/Indicator: TA100, Metabolic Activation: RAT, LIVER, S-9, PHENOBARBITAL, Method: STANDARD PLATE",inactive; negative
same,mutagenic call,[19],inactive; negative
same,mutagenic call,"Test System: AMES SALMONELLA TYPHIMURIUM, Strain/Indicator: TA1537, Metabolic Activation: RAT, LIVER, S-9, PHENOBARBITAL, Method: STANDARD PLATE",inactive; negative
same,mutagenic call,[21],inactive; negative
same,mutagenic call,"Test System: AMES SALMONELLA TYPHIMURIUM, Strain/Indicator: TA1538, Metabolic Activation: RAT, LIVER, S-9, PHENOBARBITAL, Method: STANDARD PLATE",active; positive
same,mutagenic call,"Test System: AMES SALMONELLA TYPHIMURIUM, Strain/Indicator: TA1977, Metabolic Activation: NONE, Method: STANDARD PLATE",inactive; negative
same,mutagenic call,"Test System: AMES SALMONELLA TYPHIMURIUM, Strain/Indicator: TA1977, Metabolic Activation: RAT, LIVER, S-9, PHENOBARBITAL, Method: STANDARD PLATE",inactive; negative
O=C1OCC(C(Cl)Cl)=C1Cl,mutagenic call,[13],inactive; negative
same,mutagenic call,[14],inactive; negative
same,mutagenic call,"Test System: AMES SALMONELLA TYPHIMURIUM, Strain/Indicator: TA102, Metabolic Activation: NONE, Method: STANDARD PLATE",active; positive
same,mutagenic call,"Test System: AMES SALMONELLA TYPHIMURIUM, Strain/Indicator: TA102, Metabolic Activation: RAT, LIVER, S-9, AROCLOR 1254, Method: STANDARD PLATE",inactive; negative
c1ccc2sc(SN3CCOCC3)nc2c1,mutagenic call,[13],inactive; negative
same,mutagenic call,"Test System: AMES SALMONELLA TYPHIMURIUM, Strain/Indicator: TA98, Metabolic Activation: S-9, Method: STANDARD PLATE",inactive; negative
same,mutagenic call,[15],inactive; negative
same,mutagenic call,"Test System: AMES SALMONELLA TYPHIMURIUM, Strain/Indicator: TA100, Metabolic Activation: S-9, Method: STANDARD PLATE",inactive; negative
Nc1ccc(Nc2ccc([N+](=O)[O-])cc2)cc1,mutagenic call,"Test System: AMES SALMONELLA TYPHIMURIUM, Strain/Indicator: TA98(NR), Metabolic Activation: NONE, Method: PREINCUBATION",inactive; negative
same,mutagenic call,[2],active; positive
same,mutagenic call,"Test System: AMES SALMONELLA TYPHIMURIUM, Strain/Indicator: TA98, Metabolic Activation: RAT, LIVER, S-9, AROCLOR 1254, Method: PREINCUBATION",active; positive
O=c1[nH]c(=O)n([C@@H]2O[C@H](CO)[C@@H](O)[C@@H]2O)cc1/C=C/Br,mutagenic call,"Test System: CHINESE HAMSTER V-79, Strain/Indicator: V-79/8-AZAGUANINE, Metabolic Activation: NONE",inactive; negative
same,mutagenic call,"Test System: UDS RODENT HEPATOCYTES, Strain/Indicator: THY INCORP, Metabolic Activation: NONE",inactive; negative
